The values below come from US6280725A, “Compositions and methods for inhibiting the growth of fungi” (Lipton, division of Conopco, Inc., priority 2000, dated 2001).

Holding throughout (assay type): cell-based
Assay [1] relates to Saccharomyces cerevisiae wild type strain SU-50. In words: Growth inhibition (growth curves) of wild type yeast SU-50. The note with it: for effect on growth of SU50: 25 mM sugar with 25 μM MB21, 100 cells per ml, vs reference and MB21 alone, effect if any, FIG. 5a. The method, then: (§1) For examples 2, and 4-9 grow-curves were recorded at 25° C. using a microbiology growth reader (Bioscreen C, ex Labsystems). For example 3, growth curve was determined as turbidity, measured by hand at a wave length of 660 nm (OD 660).
a) Saccharomyces cerevisiae strain SU-50 was cultivated in YEPD medium, supplemented with 2% glucose.
b) Growth curves were obtained with the strain SU-50. The cells (about 10 per ml) were cultured in YEPD at 25° C. in the presence or absence of β-gentiobiose or pustulan fragments and MB-21, by using a 24 well plate at room temperature with continuous shaking on a micro-titre plate shaker (mark 4) or a microbiology growth reader (Bioscreen C).
Three YEPD media were prepared, one without MB21, the other YEPD media contained 10 μM MB21 and 20 μM MB21, respectively. To these media β-gentiobiose was added in concentrations of 0, 50, 100 and 200 mM. The yeast strain SU50 was inoculated in these media in a concentration of 10 cells per ml, and cultivated in a 24 well plate at 25° C. Samples were taken from a 24 well plate at regular time intervals, diluted sixty times with distilled water and measured at 660 nm to construct the growth curves.
This example illustrates a relationship between the length of the β-(1,6)-glucan fragments and their effectiveness in competition.
(§2) In this example, three strains are grown in various media in the fashion of example 3, with the exception of being inoculated in the media in a concentration of 100 cells per ml. The sugars used are all comparatives: laminaribiose (β-1,3)-linked D-glucose), sucrose (having a 1,2 link), and sorbitol.
In this example, strain SU 50 was grown three media (see table 2) in the fashion of example 3, with the exception of being inoculated in the media in a concentration of 100 cells per ml.

In assay [2] the test system is Zygosaccharomyces bailii G1. In words: Growth curves / relative inhibition of strain G1. To be noted: 200 mM sugar with 6 μM MB21, 100 cells per ml, vs reference and MB21 alone; effect if any; FIG. 5c. The method, then: as §1
d) Zygosaccharomyces bailii G1: as SU-50 above.
as §2
In this example, strain G1 was grown three media (see table 4) in the fashion of example 3, with the exception of being inoculated in the media in a concentration of 100 cells per ml.
In this example, strain G1 was grown in the fashion of example 3 (with the exception of being inoculated in the media in a concentration of 100 cells per ml) in the presence of 6 μM MB21 and 50 mM of a β-(1,6)-glucan. Experiments were done with short-chain β-(1,6)-glucan of variable chain length.

Assay [3] has as its system Zygosaccharomyces bailii ZB (NCYC 563). In words: Growth curves of strain ZB. The note with it: 200 mM sugar with 6 μM MB21, 100 cells per ml, vs reference and MB21 alone; effect if any; FIG. 5b. On the procedure:
as §1
c) Zygosaccharomyces bailii ZB: as SU-50 above.
as §2
In this example, strain ZB was grown three media (see table 3) in the fashion of example 3, with the exception of being inoculated in the media in a concentration of 100 cells per ml.

Assay [4] has as its system Saccharomyces cerevisiae strain SU52-pUR5801. Description: Cell wall protein release test (α-galactosidase-CWP2p secretion into medium). The note with it: FIG. 1. On the procedure:
b) Saccharomyces cerevisiae strain SU52-pUR5801 was cultivated in Difco yeast nitrogen base (YNB), supplemented with 2% glucose and 0.004% histidine. After the culture had reached the late log-phase, the cells were cultivated further (a 10% inoculum) in YEPD medium, consisting of 1% Difco yeast extract, 2% Bacto-peptone, supplemented with 0.5% glucose and 5% galactose.
a) Saccharomyces cerevisiae strain SU52-pUR 5801 was grown in YNB and YEPD media, at 30° C. with shaking at 225 rpm in an orbital incubator until a OD (660 nm) between 5 and 6 was reached. In parallel experiments several concentrations of β-gentiobiose or pustulan fragments were included in the media. After cultivation, the media were separated from the cells by centrifugation (10.000×g for 15 min at 4° C.). The media were then filtered using […] filters. Secretion of α-(-galactosidase-CWP2p was assessed by measuring α-(-galactosidase enzyme activity in the media (see further on). […]
β-Gentiobiose was dissolved in YEPD media supplemented with 5% galactose, in concentrations of 10, 50 and 100 mM respectively. […] The enzyme activity of the fusion protein CWP2-α-galactosidase was measured as described in the α-galactosidase assay.

The structures appear in SMILES notation.

For `OC[C@@H](O)[C@@H](O)[C@H](O)[C@@H](O)CO` [sorbitol], the “effect on growth of SU50” value in assay [1] was “stimulating effect”. Moreover, the “effect on growth of G1” value in assay [2] was “stimulating effect”. Moreover, the “effect on growth of ZB” value in assay [3] is “stimulating effect”.

On to `OC[C@H]1O[C@@H](O[C@H]2[C@H](O)[C@@H](CO)OC(O)[C@@H]2O)[C@H](O)[C@@H](O)[C@@H]1O` (stereo partly shown) [laminaribiose], for which the “effect on growth of SU50” value in assay [1] is “stimulating effect”.

On to `OC[C@H]1O[C@@H](OC[C@H]2O[C@@H](O)[C@H](O)[C@@H](O)[C@@H]2O)[C@H](O)[C@@H](O)[C@@H]1O` [β-gentiobiose, 6-O-β-glucopyranosyl-β-D-glucose], for which the “influence on the growth of SU-50” value in assay [1] (β-gentiobiose as such (0, 50, 100, 200 mM, no MB21), 10 cells per ml, 25° C., OD 660, FIG. 3) is listed as “no influence”. The “relationship between concentration and secretion of the fusion construct” value in assay [4] (at least up to 100 mM β-gentiobiose) was “linear relationship”. Besides, the “secretion (release) of the fusion protein α-galactosidase-CW2p from the cell wall” value in assay [4] (β-gentiobiose 10, 50 and 100 mM in YEPD with 5% galactose, 30° C., 18 hours) is given as “concentration dependent”.

As for `OC[C@H]1O[C@@](CO)(O[C@H]2O[C@H](CO)[C@@H](O)[C@H](O)[C@H]2O)[C@@H](O)[C@@H]1O` [sucrose], the “effect on growth of SU50” value in assay [1] is recorded as “stimulating effect”. In assay [2], the “effect on growth of G1” value is “stimulating effect”. The “effect on growth of ZB” value in assay [3] is given as “stimulating effect”.
